Test results published in PMC9401487 (Clinical Cancer Research, 2021).
Like-named read-outs stand apart in the source and are kept apart here.

Key:
[1] = system: LoVo colorectal cancer cell line; test: LoVo growth inhibition, ceralasertib alone or with carboplatin; assay type: cell-based, human; conditions: Homo sapiens, LoVo, read-out: GI50 (50% growth inhibition)
patients = conditions: cited from earlier work

GI50 [1]: 90 nM
Compound: CNCc1ccc(-c2cc(-c3nc(-c4ccc(S(=O)(=O)C(C)C)cc4)cnc3N)on2)cc1 [berzosertib]
Tolerability (patients; 90 mg/m^2 + carboplatin AUC5): tolerated
Patients with grade 3/4 neutropenia (patients; 240 mg/m^2 + carboplatin AUC5, 3 patients): 3 patients
Tolerability (patients; 240 mg/m^2 days 1 and 8 every 21 days + carboplatin AUC5 day 1): not tolerated
